The values that follow come from paper PMC12684313, “Controlled Dual Activation of Rhenium(I) Photosensitizers and Profluorophores/Prodrugs via a Dissociative Bioorthogonal Tetrazine–Isonitrile Reaction” (Angewandte Chemie (International Ed. in English), 2025).

Each structure is given as a SMILES string. Read-outs that look alike come from different tables or passages of the source.

In data set [1] the test system is HeLa cells. Put plainly: MTT assay, (photo)cytotoxicity toward HeLa cells. It is filed as cell-based. The procedure: (§1) HeLa and HEK-293 cells were seeded in a 96-well flat-bottomed microplate (≈ 10,000 cells per well) in growth medium (100 µL) and incubated at 37°C under a 5% CO2 atmosphere for […]
(§2) 48 h. The growth medium was removed, and then incubated with either fresh growth medium or complexes 1a – 3a, with concentrations ranging from 10–5 to 10−8 M, in growth medium/DMSO (99:1, v/v) at 37°C for 3 h. The growth medium was removed and replaced with either fresh growth medium or ICPrc-Bn (200 µM) in growth medium/DMSO (99:1, v/v) at 37°C for 4 h. Wells containing untreated cells were used as a blank control. Wells containing cells treated with ICPrc-Bn (200 µM) alone for 4 h were used as a complex-free control. For evaluation of photocytotoxicity, the treated cells were incubated in phenol red-free growth medium (100 µL). One of the microplates was irradiated at 365 nm (5 mW cm−2) with an LED cellular photocytotoxicity irradiator (PURI Materials, Shenzhen, China) for […], whereas the other one was kept in the dark for 10 min. The cells were then incubated in fresh growth medium (100 µL) in the dark for 24 h. A solution containing MTT in PBS (10 µL, 5 mg mL−1) and fresh growth medium (90 µL) was added to each well. The microplate was incubated at 37°C for 4 h. The growth medium was removed, and DMSO (200 µL) was added to each well.
(§3) After 20 min, the absorbance of the solutions at 570 nm was measured with a Multiskan SkyHigh Microplate Spectrophotometer (Thermo Scientific). The IC50 values of the complex were determined from the dose dependence of surviving cells after the treatment using the OriginPro 8.0 software package. For dual-release studies, the cells were incubated with complex 3a, with concentrations ranging from 10–5 to 10−8 M, in growth medium/DMSO (99:1, v/v) at 37°C for 3 h, and replaced with either fresh growth medium or ICPrc-Dox (10 or 50 µM) in growth medium/DMSO (99:1, v/v) at 37°C for 4 h. Wells containing cells treated with ICPrc-Dox (10 or 50 µM) alone for 4 h were used as a complex-free control. Wells containing cells treated with cisplatin (3 h) or Dox (4 h), with concentrations ranging from 10–5 to 10−8 M, in growth medium/DMSO (99:1, v/v) at 37°C were used as positive controls. Furthermore, to evaluate the maximum therapeutic effect of the dual release, concentrations of complex 3b and Dox were serially diluted in a 1:1 ratio to serve as a reference, assuming similar cellular uptake […]
(§4) of complex 3a with 3b and ICPrc-Dox with Dox. Briefly, HeLa cells were incubated with complex 3b, with concentrations ranging from 10–5 to 10−8 M, in growth medium/DMSO (99:1, v/v) at 37°C for 3 h, and replaced with either fresh growth medium or Dox, with concentrations ranging from 10–5 to 10−8 M, in growth medium/DMSO (99:1, v/v) at 37°C for 4 h.
A general note: Formazan colour is commonly taken as a measure of viable cells.

For data set [2], the system named is HEK‐293 cells. Nature of the data set: MTT assay, (photo)cytotoxicity toward HEK-293 cells. The format is cell-based. The procedure:
as §1, §2
(§5) After 20 min, the absorbance of the solutions at 570 nm was measured with a Multiskan SkyHigh Microplate Spectrophotometer (Thermo Scientific). The IC50 values of the complex were determined from the dose dependence of surviving cells after the treatment using the OriginPro 8.0 software package. […]

Data set [3] can be described thus: MTT assay, (photo)cytotoxicity toward HeLa cells. The format is cell-based. To be noted: human, HeLa cells, read-out: cell viability. The procedure:
as §1, §2, §3, §4

A short description of data set [4]: MTT assay, (photo)cytotoxicity toward HEK-293 cells. The format is cell-based. The note with it: human, HEK-293 cells, read-out: cell viability. The procedure:
as §1, §2, §5

Data set [5] can be described thus: Stability of ICPr/ICPrc derivatives in serum (HPLC). The format is in vitro ADME. The note with it: 25 µM in 25% FBS, 37 °C, dark. The procedure:
was incubated with ICPr-coum (80 µM) in aerated McIlvaine buffer (pH 7.4 or 5.0)/CH3CN (4:1, v/v) at 37°C. The reactions at different time points were quenched by the addition of 900 µL of cold H2O/CH3CN (1:1, v/v) and then analyzed by RP-HPLC. The HPLC analysis was conducted following the elution conditions specified for the reaction kinetic studies. The release yields were plotted against time. The half-lives (t1/2) were defined as the time required for the concentration of the reactant to decrease by half of its initial quantity, obtained through an exponential fit of the curve. The release yields were defined as the quantity of the final product, umbelliferone, liberated in the reaction. Furthermore, to evaluate the effect of ether versus carbamate linkages within the ICPr/ICPrc moiety on release kinetics, the half-lives of ICPr-coum, ICPr-fluorescein, and ICPrc-Dox were determined by HPLC analyses. Equimolar mixtures of complex 3a (50 µM) and each ICPr/ICPrc derivative (50 µM) were incubated in aerated McIlvaine buffer (pH 7.4)/DMSO (4:1, v/v) at 37°C. The reactions at different time points were quenched by the addition of 900 µL of cold H2O/CH3CN (1:1, v/v) and then […]
Stability of ICPr/ICPrc Derivatives in Serum
ICPr-fluorescein or ICPrc-Dox (25 µM) was incubated in 25% FBS at 37 °C in the dark for 48 h. […]

Data set [6] is described as follows: 1O2 generation quantum yield by ABDA assay in McIlvaine buffer. The format is physicochemical. To be noted: 298 K. The procedure: The ^1O2 generation efficiencies of the complexes were evaluated by monitoring the emission band of ^1O2 centered at around 1270 nm^[ [34], [35] ^] in aerated CH3CN. […] Considering the pH‐dependent emission properties of complexes 1b–3b, we believe that their ^1O2 photosensitization efficiencies would also be influenced by pH. Taking complex 3b as an example, its ^1O2 generation efficiency was evaluated in aerated McIlvaine buffer solutions at various pH levels by the 9,10‐anthracenediyl‐bis(methylene)dimalonic acid (ABDA) assay.^[ [36] ^] […] Thus, the TzMe complexes are anticipated to function as pH‐sensitive phosphorogenic bioorthogonal probes, enabling simultaneous detection and photodynamic therapy in lysosomal compartments (pH ≈ 4.5–5.0)^[ [37], [38] ^] and acidic TME. […]
where the subscripts s and r refer to the sample and reference solutions, respectively, Φ is 1O2 quantum yield, m is the slope of a linear fit of the change of absorbance at 378 nm against the irradiation time, B is 1 – 10–AL, A is absorbance at the excitation wavelength, and L is path […]
To confirm the liberation of ICPr/ICPrc -caged compounds during the reaction, the concurrent release of compounds from their respective tetrazine and ICPr/ICPrc caging groups was studied by RP-HPLC analysis. Complex 3a (50 µM) and ICPr -coum (40 µM) were incubated in aerated McIlvaine buffer (pH 7.4)/DMSO (4:1, v/v) at 37°C for 18 h. The reaction mixture was subjected to HPLC analysis. The HPLC analysis was performed using an Agilent analytical column (ZORBAX Eclipse Plus C18 column: 4.6 × 150 mm, 5 µm) with a linear gradient of 0 − 100% solvent B over 12 min and a flow rate of 1 mL min −1. The emission was monitored at the emission peak maxima of the released products, umbelliferone (also known as 7 - hydroxycoumarin) (λex = 350 nm, λem = 460 nm) and complex 3b (λex = 350 nm, λem = 562 nm). […] The emission spectrum was recorded on a HORIBA FluoroMax-4 spectrofluorometer. […] The reaction was monitored by HPLC analyses after incubation for 4 and 24 h.

The nature of data set [7]: 1O2 generation quantum yield from 1O2 emission at around 1270 nm. It is filed as physicochemical. To be noted: aerated CH3CN, 298 K; λex = 350 nm; reference phenalenone. The procedure: The ^1O2 generation efficiencies of the complexes were evaluated by monitoring the emission band of ^1O2 centered at around 1270 nm^[ [34], [35] ^] in aerated CH3CN. […] Considering the pH‐dependent emission properties of complexes 1b–3b, we believe that their ^1O2 photosensitization efficiencies would also be influenced by pH. Taking complex 3b as an example, its ^1O2 generation efficiency was evaluated in aerated McIlvaine buffer solutions at various pH levels by the 9,10‐anthracenediyl‐bis(methylene)dimalonic acid (ABDA) assay.^[ [36] ^] […] Thus, the TzMe complexes are anticipated to function as pH‐sensitive phosphorogenic bioorthogonal probes, enabling simultaneous detection and photodynamic therapy in lysosomal compartments (pH ≈ 4.5–5.0)^[ [37], [38] ^] and acidic TME.

Setting [8] is: – ICPrc‐Bn, irradiation at 365 nm (5 mW cm−2) for 5 min, read-out: IC50,light.
Setting [9] is: ICPrc‐Bn (200 µM) alone for 4 h, subsequently irradiated.
Setting [10] is: ICPrc‐Dox (10 or 50 µM) alone, dark and irradiation.

One may read the IC50 as the concentration at which inhibition is half-maximal. Take `N.N.[Cl][Pt][Cl]` [Cisplatin, cisplatin, reference compound]: the IC50 in data set [1] (– ICPrc‐Bn (complex 3 h, fresh medium 4 h; cisplatin 3 h), dark, read-out: IC50,dark) is more than 50 µM; in data set [1] (setting [8]) it was more than 50 µM; in data set [2] (– ICPrc‐Bn, dark, read-out: IC50,dark), more than 50 µM; in data set [2] (setting [8]), more than 50 µM.
As to `COc1cccc2c1C(=O)c1c(O)c3c(c(O)c1C2=O)C[C@@](O)(C(=O)CO)C[C@@H]3O[C@H]1C[C@H](N)[C@H](O)[C@H](C)O1` [Dox, doxorubicin, reference compound], the half-maximal inhibitory concentration (IC50) in data set [1] (Homo sapiens, Table 2, no ICPrc‐Dox (3a 3 h then fresh medium 4 h; Dox 4 h), dark, read-out: IC50,dark) was 5.8 ± 0.6 µM; in data set [1] (Homo sapiens, light or radiation study, 5 min, Table 2, no ICPrc‐Dox, irradiation at 365 nm (5 mW cm−2) for 5 min, read-out: IC50,light), 5.3 ± 0.6 µM; in data set [2] (Homo sapiens, HEK293, Table 2, no ICPrc‐Dox, dark, read-out: IC50,dark), more than 50 µM; in data set [2] (Homo sapiens, HEK293, light or radiation study, 5 min, Table 2, no ICPrc‐Dox, irradiation at 365 nm (5 mW cm−2) for 5 min, read-out: IC50,light), 43 ± 2 µM. For the same molecule, the “PI (IC50,dark/IC50,light)” value is listed as 1 in data set [1] (Table 2, no ICPrc‐Dox) and more than 1 in data set [2] (Table 2, no ICPrc‐Dox).
A word on the viability: it is a per cent measure of how many cells are alive, often set against a control. Consider `[C-]#[N+]CCCOC(=O)NCc1ccccc1` [ICPrc‐Bn, 3‐isocyanopropyl benzylcarbamate, reference compound], for which the viability at 4 h, 200 µM in data set [3] (setting [9]) and in data set [4] (setting [9]) was more than 98% each time.
In the case of `[C-]#[N+]CCCOC(=O)NC1CC(OC2CC(O)(C(=O)CO)Cc3c(O)c4c(c(O)c32)C(=O)c2c(OC)cccc2C4=O)OC(C)C1O` (centres unmarked) [ICPrc‐Dox, N-(3-isocyanopropyl-1-carbamoyl)doxorubicin, reference compound], the viability at 4 h in data set [3] (setting [10]) and in data set [4] (setting [10]) was more than 98% in each case. In addition, the “time stable in serum” value in data set [5] is given as “over 48 h”.
In the case of `[C-]#[N+]CCCOc1ccc2c(-c3ccccc3C(=O)O)c3ccc(=O)cc-3oc2c1` [ICPr‐fluorescein], in data set [5], the “time stable in serum” value is reported as “at least 48 h”.
As for `O=S(=O)([O-])C(F)(F)F.O=[C]=[Re-2]1(=[C]=O)(=[C]=O)([n+]2cccc(O)c2)[n+]2ccc(-c3ccccc3)c3ccc4c(-c5ccccc5)cc[n+]1c4c32` [complex 3b, [Re(N^N)(CO)3(py‐OH)](CF3SO3)], in data set [1] (Table S10), the “PI (IC50,dark/IC50,light)” value is 6. In addition, the IC50 in data set [1] (Table S10, 3b 3 h then fresh medium or Dox (1:1 ratio) 4 h, dark, read-out: IC50,dark) came to 29 µM; in data set [1] (Table S10, 3b 3 h then fresh medium or Dox (1:1 ratio) 4 h, irradiation at 365 nm (5 mW cm−2) for 5 min, read-out: IC50,light), 5.1 µM. The “1O2 generation quantum yield (ΦΔ)” value was 0.24 in data set [6] (aerated McIlvaine buffer pH 3.0/CH3CN (4:1, v/v)); 0.12 in data set [6] (aerated McIlvaine buffer pH 5.0/CH3CN (4:1, v/v)); “Negligible” in data set [6] (aerated McIlvaine buffer pH 7.4/CH3CN (4:1, v/v)); 0.63 in data set [7].
